Patent US20210401918A1, “COMPOSITION COMPRISING COMBINATION OF RED CLOVER EXTRACT AND HOPS EXTRACT FOR IMPROVEMENT OF MENOPAUSAL DISORDER” (NATURETECH CO. LTD., priority 2018, published 2021)

System: MCF-7 cells
Experiment: MCF-7 cells proliferation assay (MTS)
Assay type: cell-based, human
Protocol: MCF-7 cells (human breast cancer cells) were obtained from the Korea Cell Line Bank and used. RPMI (Gibco, USA) medium containing 10% FBS (Gibco, USA) and 1% penicillin-streptomycin (Gibco, USA) was used as cell culture medium, and cells were cultured in 5% CO2, 37° C. incubator. The medium was replaced every two days, and cells were sub-cultured every 4-5 days. HUVECs (human umbilical vein endothelial cells) were obtained from LONZA and used. M200 (Gibco, USA) containing LSGS kit (Gibco, USA) was used as cell culture medium, and only cells at passage 3-5 were used for the experiment.
Estrogen-free medium, which was prepared by diluting phenol red-free RPMI (Gibco, USA) with 5% dextran-coated charcoal-stripped FBS (TCB, USA) and 1% penicillin-streptomycin, was used for the experiment. After reacting cells in the estrogen-free medium for 3 days, they were seeded in a 96-well plate at a concentration of 1.5×10^4 cells/well and incubated in 5% CO2, 37° C. incubator for 24 hours, and then were treated with the sample so that the final DMSO concentration was 0.1%. E2 was used as the positive control, and ICI 182,780 (Sigma Chem. Co., USA) was used as the negative control. After 72 hours of sample treatment, MTS analysis was performed using CellTiter 96®Aqueous One Solution (Promega, Germany) reagent. Each well was treated with 20 μl of MTS reagent, reacted in 5% CO2, 37° C. incubator for 3 hours, and the absorbance was measured at 490 nm using a microplate reader.
In order to ascertain whether each sample acts on the estrogen receptor to show a cell proliferation effect, the sample was treated together with the estrogen receptor inhibit ICI 182,780, and the results are shown in Table 9.

C[C@]12CC[C@@H]3c4ccc(O)cc4C[C@@H](CCCCCCCCC[S+]([O-])CCCC(F)(F)C(F)(F)F)[C@H]3[C@@H]1CC[C@@H]2O (stereo partly shown) [ICI 182,780]
Proliferation (%) with ICI 182,780 (Table 9, Control (sample 0 μg/ml) with ICI 182,780 alone): 86.55 ± 1.95%

C[C@]12CC[C@@H]3c4ccc(O)cc4CC[C@H]3[C@@H]1CC[C@@H]2O [Estradiol, 17β-estradiol]
Proliferation (%) (Table 8, 1 nM, 72 hours, Control = 100): 135.78 ± 2.83 % | Proliferation (%) with ICI 182,780 (Table 9, 1 nM, together with ICI 182,780): 92.27 ± 2.04% | Proliferation (%) without ICI 182,780 (Table 9, 1 nM, without ICI 182,780): 143.39 ± 10.46%
